The values below come from patent US20070128669A1, “Serum-free expansion of cells in culture” (Institute for Chemical Genomics, priority 2005, published 2007).

Experiment [1] has as its system p300/β-catenin complex. Put plainly: Co-immunoprecipitation of β-catenin with p300 in P19 cells. It is filed as cell-based. The note with it: Wnt3a, 10 μM, 24 hours. The protocol: (§1) Co-immunoprecipitation of β-catenin with CBP or p300 in P19 cells. Co-immunoprecipitation was performed as described in (27). Briefly, P19 cells were treated with 10 μM ICG-001 or 10 μM IQ-1 (control DMSO was 0.025%) for 24 hours, after which they were washed and lysed […]. Nuclear fraction was isolated and precleared with antibodies to CBP(A-22) or p300(N-15). β-catenin was detected using a mouse monoclonal antibody (Becton Dickinson) at a dilution of 1:5000.

Experiment [2] concerns the target T1, CBP/β-catenin complex (Mus musculus, UniProt P45481).
T1 construct: endogenous in cells; host or cells: P19 cells (nuclear fraction)
Put plainly: Co-immunoprecipitation of β-catenin with CBP in P19 cells. It is filed as cell-based. As to conditions: Wnt3a, 10 μM, 24 hours. The procedure:
as §1

The subject of experiment [3] is C2C12 myoblasts. Put plainly: Differentiation of C2C12 myoblasts in growth medium. It counts as cell-based. As to conditions: 10 μM in growth medium. The procedure: FIG. 12. FIG. 12 illustrates that differentiation of C2C12 myoblasts was induced by 10 μM ICG-001 in growth medium, similar to differentiation medium.
In experiment [4] the test system is Nanog gene expression in ESCs. The experiment in a line: Real-time RT-PCR for Nanog in feeder-free ESCs. It counts as cell-based, mouse. The note with it: feeder-free ESCs; IQ-1 4 μg/ml or LIF 1000 U/ml, 21 hrs. The procedure: FIG. 2. […] Real-time RT-PCR for Nanog was performed. The control expression level of Nanog at day 0 was set at 1. FIG. 2B, removal of IQ-1 decreases Nanog gene expression in ESCs. IQ-1 was removed from ESCs which had been cultured under feeder-free system and in the presence of IQ-1 (4 μg/ml), for three days. At the end of this period, mRNA was isolated and real-time RT-PCR was performed to assay for Nanog gene expression. FIG. 2C, effects of IQ-1 were not mediated through Stat3 signaling pathway as judged by luciferase reporter assay. Feeder-free ESCs, transfected with the pSTAT3-TA-Luc reporter, were exposed to IQ-1 at the indicated doses, or LIF. All error bars represent mean±SD.
Real-time RT-PCR. Total RNA was isolated and reverse-transcribed using SuperScript III (Invitrogen). Real-time RT-PCR (Sybr Green; BioRad) was performed using with the gene-specific primers: […]
For orientation: Real-time PCR tracks product formation cycle by cycle.

Experiment [5] has as its system Stat3 signaling pathway. Put plainly: pSTAT3-TA-Luc luciferase reporter assay in ESCs. As to conditions: 24 hours exposure. It counts as cell-based, mouse. The protocol: Transfection and Luciferase assay. ESCs were cultured in 96-well cell culture dishes coated with a 0.1% aqueous gelatin solution and transfected with 0.2 μg/well of pSTAT3-TA-Luc (CLONTECH), using Lipofectamine 2000 (Invitrogen). After 6 hours, cells were washed and exposed to either IQ-1 at the indicated doses, or LIF, for 24 hours. Transfection efficiencies were normalized with pRL-null luciferase plasmid. Luciferase assays were performed with the DUAL-Luciferase Reporter Assay System (Promega).

Experiment [6] has as its system ESCs. The experiment in a line: Long term feeder-free culture of ESCs in serum-free (15% KSR) media. It is filed as cell-based, mouse. The protocol:
FIG. 7. […] ESCs were cultured in 15% KSR, 4 μg/ml of IQ-1 and 100 ng/ml Wnt3a. ESCs were passaged 2-3 times per week at 1×10^5-1×10^6 cells per 6 cm dish and cells were counted.
FIG. 8. […] AP activity of ESCs cultured for 7 days in IQ-1 containing media supplemented with 15% FCS or 15% KSR. […] (Error bars represent ±S.D.)
FIG. 9. […] Over the 42-day culture period, ESCs cultured in the media in the presence of IQ-1 and Wnt3a maintain expression of the pluripotency markers, (a) Nanog, (b) Oct3/4 and (c) Rex-1. The expression level on day 0 was set as 1.
Cell culture. ESCs, D3ES (ATCC CRL-1934) were maintained on Mitomycin C treated MEFs in mouse ESC medium containing DMEM (Invitrogen) supplemented with 15% FBS (Invitrogen), 0.1 mM MEM nonessential amino acids (Invitrogen), 0.1 mM 2-mercaptoethanol (Sigma), 2 mM L-glutamine (Invitrogen) and 1,000 U/ml LIF (CHEMICON). To remove MEFs, cells were collected by trypsinization and plated on gelatin-coated culture dishes for 20 min. Non-adherent cells consisting mainly of ESCs were replated on gelatin-coated culture dishes again. Non-adherent cells were used for further experiments. P19 cells were cultured according to conditions recommended by the ATCC. Cells were incubated at 37° C. in a 5% CO2 incubator. Purified Wnt3a was purchased (R&D Systems).

T1 sequence (P45481 2-2441 limits assumed, one chain of several): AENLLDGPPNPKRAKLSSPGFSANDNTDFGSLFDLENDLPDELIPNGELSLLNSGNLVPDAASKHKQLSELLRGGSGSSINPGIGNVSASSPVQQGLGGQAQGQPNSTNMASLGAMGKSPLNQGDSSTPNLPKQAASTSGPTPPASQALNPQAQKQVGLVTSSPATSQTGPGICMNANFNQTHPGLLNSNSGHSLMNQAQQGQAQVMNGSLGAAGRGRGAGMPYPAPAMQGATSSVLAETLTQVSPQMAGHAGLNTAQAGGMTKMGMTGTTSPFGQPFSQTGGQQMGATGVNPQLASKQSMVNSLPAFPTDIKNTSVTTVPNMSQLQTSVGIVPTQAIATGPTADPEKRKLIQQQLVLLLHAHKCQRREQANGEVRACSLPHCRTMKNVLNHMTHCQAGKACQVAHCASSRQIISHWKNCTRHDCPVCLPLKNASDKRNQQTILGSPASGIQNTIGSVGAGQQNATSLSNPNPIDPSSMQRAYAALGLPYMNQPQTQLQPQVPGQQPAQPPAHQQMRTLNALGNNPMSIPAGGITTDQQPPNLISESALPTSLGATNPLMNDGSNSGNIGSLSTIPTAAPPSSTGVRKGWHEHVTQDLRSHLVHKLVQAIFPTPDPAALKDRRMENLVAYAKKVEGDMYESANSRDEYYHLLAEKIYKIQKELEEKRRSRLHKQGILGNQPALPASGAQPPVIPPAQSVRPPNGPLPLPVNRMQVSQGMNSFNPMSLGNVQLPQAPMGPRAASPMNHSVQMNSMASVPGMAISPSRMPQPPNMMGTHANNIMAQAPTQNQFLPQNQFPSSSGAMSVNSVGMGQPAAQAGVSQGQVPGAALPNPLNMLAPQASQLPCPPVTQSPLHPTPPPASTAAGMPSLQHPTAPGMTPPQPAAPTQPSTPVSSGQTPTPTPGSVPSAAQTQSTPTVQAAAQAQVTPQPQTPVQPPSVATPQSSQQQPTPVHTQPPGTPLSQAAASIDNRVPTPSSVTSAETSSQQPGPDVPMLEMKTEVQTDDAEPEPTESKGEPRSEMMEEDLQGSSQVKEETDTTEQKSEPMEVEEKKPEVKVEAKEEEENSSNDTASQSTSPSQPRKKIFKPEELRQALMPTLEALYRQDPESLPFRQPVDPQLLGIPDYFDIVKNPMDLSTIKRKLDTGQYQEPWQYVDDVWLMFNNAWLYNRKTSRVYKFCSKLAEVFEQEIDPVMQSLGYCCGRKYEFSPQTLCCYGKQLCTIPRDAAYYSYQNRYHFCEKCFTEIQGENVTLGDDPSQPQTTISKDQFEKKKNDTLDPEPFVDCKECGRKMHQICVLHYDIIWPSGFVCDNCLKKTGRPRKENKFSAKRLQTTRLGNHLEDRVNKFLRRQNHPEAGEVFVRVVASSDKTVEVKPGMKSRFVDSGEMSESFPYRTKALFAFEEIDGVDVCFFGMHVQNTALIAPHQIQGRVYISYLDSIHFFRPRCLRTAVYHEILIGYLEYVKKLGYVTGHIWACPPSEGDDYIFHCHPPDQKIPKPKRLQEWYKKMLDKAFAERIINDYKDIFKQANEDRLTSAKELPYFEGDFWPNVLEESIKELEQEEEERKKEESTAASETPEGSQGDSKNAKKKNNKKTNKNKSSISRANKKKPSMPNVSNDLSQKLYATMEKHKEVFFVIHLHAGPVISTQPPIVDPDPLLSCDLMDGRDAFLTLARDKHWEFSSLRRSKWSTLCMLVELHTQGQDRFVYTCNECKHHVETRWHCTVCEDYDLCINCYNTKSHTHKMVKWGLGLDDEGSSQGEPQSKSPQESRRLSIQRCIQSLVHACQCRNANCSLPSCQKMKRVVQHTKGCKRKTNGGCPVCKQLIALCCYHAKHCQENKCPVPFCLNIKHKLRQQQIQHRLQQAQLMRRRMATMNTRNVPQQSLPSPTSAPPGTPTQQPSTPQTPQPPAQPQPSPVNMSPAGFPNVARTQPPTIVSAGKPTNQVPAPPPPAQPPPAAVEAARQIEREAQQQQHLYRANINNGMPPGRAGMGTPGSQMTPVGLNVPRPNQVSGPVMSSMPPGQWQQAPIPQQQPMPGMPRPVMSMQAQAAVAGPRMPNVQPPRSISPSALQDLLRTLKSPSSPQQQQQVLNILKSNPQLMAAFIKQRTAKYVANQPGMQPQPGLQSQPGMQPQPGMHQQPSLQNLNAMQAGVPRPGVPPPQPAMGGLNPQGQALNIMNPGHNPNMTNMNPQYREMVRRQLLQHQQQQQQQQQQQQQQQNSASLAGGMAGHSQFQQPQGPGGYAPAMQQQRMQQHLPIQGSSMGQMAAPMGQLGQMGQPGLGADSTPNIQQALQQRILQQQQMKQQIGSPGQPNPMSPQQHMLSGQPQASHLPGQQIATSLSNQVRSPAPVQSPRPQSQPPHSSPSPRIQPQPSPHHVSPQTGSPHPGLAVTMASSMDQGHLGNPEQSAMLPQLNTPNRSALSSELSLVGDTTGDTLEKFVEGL

With `O=C1[C@H](Cc2ccc(O)cc2)N2C(=O)CCN(C(=O)NCc3ccccc3)[C@H]2CN1Cc1cccc2ccccc12` [ICG-001, reference compound], in experiment [1], the p300/β-catenin interaction entry is “significantly enhanced the p300/β-catenin interaction”. The “relative amount of β-catenin associated with CBP” value in experiment [2] is given as “at the expense of the CBP/β-catenin interaction”. The “differentiation of C2C12 myoblasts” value in experiment [3] is reported as “induced the differentiation of C2C12 myoblasts”.
On to “LIF: cytokine leukemia inhibitory factor (CHEMICON)”, for which, in experiment [4], the Nanog expression entry is reported as “only slightly increased Nanog levels”. Further, the Stat3/luciferase expression result in experiment [5] is recorded as “elicited a significant response”.

B1: Wnt3a: purified Wnt3a protein purchased from R&D Systems (protein, UniProt P56704 19-352, looked up)
Protein Wnt-3a: SYPIWWSLAVGPQYSSLGSQPILCASIPGLVPKQLRFCRNYVEIMPSVAEGIKIGIQECQHQFRGRRWNCTTVHDSLAIFGPVLDKATRESAFVHAIASAGVAFAVTRSCAEGTAAICGCSSRHQGSPGKGWKWGGCSEDIEFGGMVSREFADARENRPDARSAMNRHNNEAGRQAIASHMHLKCKCHGLSGSCEVKTCWWSQPDFRAIGDFLKDKYDSASEMVVEKHRESRGWVETLRPRYTYFKVPTERDLVYYEASPNFCEPNPETGSFGTRDRTCNVSSHGIDGCDLLCCGRGHNARAERRREKCRCVFHWCCYVSCQECTRVYDVHTCK
As to B1, in experiment [6] (7 days, IQ-1 containing media, 15% KSR), the “AP activity of ESCs on addition of Wnt3a to IQ-1 containing 15% KSR media” value is “increases AP activity”. In addition, in experiment [6] (KSR media), the “ESC proliferation, Wnt3a alone” value is on record as “induced proliferation” and the “expression of stem cell markers Oct4, Nanog, Rex1, Wnt3a alone” value is “not sufficient to maintain the expression”. The “maintenance of undifferentiated status of ESCs, agent alone” value in experiment [6] (KSR media, single agent) is recorded as “Neither Wnt3a nor IQ-1 alone was sufficient”.
